{"source": "patent US8889591B2", "about": "“Herbicidal compositions comprising 4-amino-3-chloro-5-fluoro-6-(4-chloro-2-fluoro-3-methoxyphenyl)pyridine-2-carboxylic acid or a derivative thereof and bromobutide, daimuron, oxaziclomefone or pyributicarb” (Dow Agrosciences LLC, priority 2012, dated 2014)", "test_system": "IPOHE", "assay": "Postemergence foliar-applied greenhouse weed control, direct-seeded rice system", "format": "in vivo, Ipomoea hederacea Jacq.", "excerpt": "Seeds or nutlets of the desired test plant species were planted in a soil matrix prepared by mixing a loam or sandy loam soil (e.g., 28.6 percent silt, 18.8 percent clay, and 52.6 percent sand, with a pH of about 5.8 and an organic matter content of about 1.8 percent) and calcareous grit in an 80 to 20 ratio. The soil matrix was contained in plastic pots with a volume of 1 quart and a surface area of 83.6 square centimeters (cm^2). When required to ensure good germination and healthy plants, a fungicide treatment and/or other chemical or physical treatment was applied. The plants were grown for 8-22 days in a greenhouse with an approximate 14 h photoperiod which was maintained at about 29° C. during the day and 26° C. during the night. Nutrients (Peters Excel® 15-5-15 5-Ca 2-Mg and iron chelate) were applied in the irrigation solution as needed and water was added on a regular basis. Supplemental lighting was provided with overhead metal halide 1000-Watt lamps as necessary. The plants were employed for testing when they reached the first through fourth true leaf stage.\nTreatments consisted of the acid or esters of 4-amino-3-chloro-5-fluoro-6-(4-chloro-2-fluoro-3-methoxy-phenyl)pyridine-2-carboxylic acid (Compound A), each formulated as an SC (suspension concentrate), and various herbicidal components alone and in combination. Forms of compound A were applied on an acid equivalent basis.\nOther herbicidal components were applied on an active ingredient basis and included diamuron formulated as an EC (emulsifiable concentrate) and oxaziclomefone (technical grade material).\nTreatment requirements were calculated based upon the rates being tested, the concentration of active ingredient or acid equivalent in the formulation, and a 12 mL application volume at a rate of 187 L/ha.\nFor treatments comprised of formulated compounds, measured amounts of compounds were placed individually in 25 mL glass vials and diluted in a volume of 1.25% (v/v) Agri-Dex® crop oil concentrated to obtain 12× stock solutions. […] Application solutions were prepared by adding an appropriate amount of each stock solution (e.g., 1 mL) and diluted to the appropriate final concentrations with the addition of 10 mL of an aqueous mixture of 1.25% (v/v) crop oil concentrate so that the final spray solutions contained 1.25+/−0.05% (v/v) crop oil concentrate.\nFor treatments comprised of technical compounds, weighed amounts can be placed individually in 25 mL glass vials and dissolved in a volume of 97:3 v/v acetone/DMSO to obtain 12× stock solutions. […] Application solutions can be prepared by adding an appropriate amount of each stock solution (e.g., 1 mL) and diluted to the appropriate final concentrations with the addition of 10 mL of an aqueous mixture of 1.5% (v/v) crop oil concentrate so that the final spray solutions contain 1.25% (v/v) crop oil concentrate. When technical materials are used, the concentrated stock solutions can be added to the spray solutions so that the final acetone and DMSO concentrations of the application solutions are 16.2% and 0.5%, respectively.\nFor treatments comprised of formulated and technical compounds, weighed amounts of the technical materials were placed individually in 25 mL glass vials and dissolved in a volume of 97:3 v/v acetone/DMSO to obtain 12× stock solutions, and measured amounts of the formulated compounds were placed individually in 25 mL glass vials and diluted in a volume of 1.5% (v/v) crop oil concentrate or water to obtain 12× stock solutions. […] Application solutions were prepared by adding an appropriate amount of each stock solution (e.g., 1 mL) and diluted to the appropriate final concentrations with the addition of an appropriate amount of an aqueous mixture of 1.5% (v/v) crop oil concentrate so that the final spray solutions contained 1.25% (v/v) crop oil concentrate. […]"}
{"smiles": "COc1c(Cl)ccc(-c2nc(C(=O)OCc3ccccc3)c(Cl)c(N)c2F)c1F", "note": "[Compound A Benzyl Ester]", "values": [{"measurement": "Visual Weed Control (%) - 20 DAA IPOHE Obs", "setting": "Compound A Benzyl Ester 4.38 gae/ha alone", "result": 10, "unit": "%"}, {"measurement": "Visual Weed Control (%) - 20 DAA IPOHE Obs", "setting": "Compound A Benzyl Ester 8.75 gae/ha alone", "result": 25, "unit": "%"}, {"measurement": "Visual Weed Control (%) - 20 DAA IPOHE Obs", "setting": "Compound A Benzyl Ester 17.5 gae/ha alone", "result": 50, "unit": "%"}]}
